# Test results taken from patent publication US20230146455A1, “TREATMENT OF INFLAMMATORY DISEASES WITH PEPTIDES AND PHARMACEUTICAL COMPOSITIONS” (Yuyu Pharma, Inc., priority 2020, published 2023).
# Where “and” joins values, the source holds several entries; their conditions need not be identical. Equal values may be shown once. Where a SMILES comes first, the peptide text is derived from it. [ ]: non-standard residue; d: D form. Hyp = O=C(O)[C@@H]1C[C@@H](O)CN1
# Tests used:
# [1] = test system: IL-1 beta/IL-1F2; experiment: Example 8 main study Luminex, LPS hPBMCs: IL-1 beta/IL-1F2; type: cell-based, human
# Method: (§1) Human PBMCs were pretreated with YY-101, YDE-011, YDE-043 or reference compound; Xiidra® at various concentration (ranging from […] to 500 nM) for 2 h before stimulation. An equal volume of 0.5% DMSO was used as a vehicle control. Then, the cells were treated with LPS at 5 ug/ml, which was selected based on the pilot study. The supernatants from treated cells were harvested at 24 h and placed in a 96 well for Luminex cytokine & chemokine profiling using a Luminex 200 multiplex assay (Luminex; R&D system, USA).
# (§2) The main study arm with triplicate wells per group in a 24-well plate: • 1. Blank • 2. PBMC: 0.5% DMSO • 3. PBMC+LPS (5 ug/ml) • 4. PBMC+YY-101 500 nM • 5. PBMC+YY-101 50 nM • 6. PBMC+YY-101 5 nM • 7. PBMC+YY-101 0.5 nM • 8. PBMC+LPS (5 ug/ml)+Xiidra® 500 nM • 9. PBMC+LPS (5 ug/ml)+Xiidra® 50 nM • 10. PBMC+LPS (5 ug/ml)+Xiidra® 5 nM • 11. PBMC+LPS (5 ug/ml)+Xiidra® 0.5 nM • 12. PBMC+LPS (5 ug/ml)+Xiidra® 0.05 nM • 13. PBMC+LPS (5 ug/ml)+Xiidra® 0.005 nM • 14. PBMC+LPS (5 ug/ml)+YY-101 500 nM • 15. PBMC+LPS (5 ug/ml)+YY-101 50 nM • 16. PBMC+LPS (5 ug/ml)+YY-101 5 nM • 17. PBMC+LPS (5 ug/ml)+YY-101 0.5 nM • 18. PBMC+LPS (5 ug/ml)+YY-101 0.05 nM • 19. PBMC+LPS (5 ug/ml)+YY-101 0.005 nM • 20. PBMC+LPS (5 ug/ml)+YDE-011 500 nM • 21. PBMC+LPS (5 ug/ml)+YDE-011 50 nM • 22. PBMC+LPS (5 ug/ml)+YDE-011 5 nM • 23. PBMC+LPS (5 ug/ml)+YDE-011 0.5 nM • 24. PBMC+LPS (5 ug/ml)+YDE-011 0.05 nM • 25. PBMC+LPS (5 ug/ml)+YDE-011 0.005 nM • 26. PBMC+LPS (5 ug/ml)+YDE-043 500 nM • 27. PBMC+LPS (5 ug/ml)+YDE-043 50 nM • 28. PBMC+LPS (5 ug/ml)+YDE-043 5 nM • 29. PBMC+LPS (5 ug/ml)+YDE-043 0.5 nM • 30. PBMC+LPS (5 ug/ml)+YDE-043 0.05 nM • 31. PBMC+LPS (5 ug/ml)+YDE-043 0.005 nM
# (§3) Multiplex assay was used to measure 30 cytokines and chemokines. The 1:200 diluted cell supernatant and serial dilution of the standard were dispensed into a 96 well plate at 50 ul/well. Then, the pre-mixed cocktail of antibody-coated magnetic beads was dispensed at 50 ul/well and incubated at room temperature for 2 h in a horizontal orbital microplate shaker at 800±500 rpm. The beads were washed using a magnetic device to prevent loss. The biotin-antibody was dispensed in 50 ul of each well and incubated at room temperature for 1 h in a shaker at 800±500 rpm. After washing, streptavidin-PE was added at 50 ul/well and incubated at room temperature for 30 min in a shaker under the same conditions. Finally, after washing, wash buffer (100 ul/well) was added to the plate and incubated in a shaker for 2 min. The Luminex™ 200 setting were set according to the manufacturer's protocol. The data was calculated with a standard five-parameter logistic nonlinear regression analysis of the data (xPonent software 4.2, USA). Results were presented as concentration (ng/ml or pg/ml).
# [2] = test system: IL-2; experiment: Example 8 main study Luminex, LPS hPBMCs: IL-2; type: cell-based, human; conditions: for IL-2 Concentration, individual wells / IL-2 MFI, individual wells / IL-2 MFI, Mean / IL-2 Concentration, Mean: 24 h; for IL-2 MFI, Mean: LPS alone Mean 80.5; for IL-2 Concentration, Mean: LPS alone Mean 3988.7
# Method: as §1, §2, §3
# [3] = PBMC + LPS(5 ug/ml) + test article 0.005 nM, Mean
# [4] = PBMC + LPS(5 ug/ml) + test article 0.005 nM, individual replicates
# [5] = PBMC + LPS(5 ug/ml) + test article 0.05 nM, Mean
# [6] = PBMC + LPS(5 ug/ml) + test article 0.05 nM, individual replicates
# [7] = PBMC + LPS(5 ug/ml) + test article 0.5 nM, Mean
# [8] = PBMC + LPS(5 ug/ml) + test article 0.5 nM, individual replicates
# [9] = PBMC + LPS(5 ug/ml) + test article 5 nM, Mean
# [10] = PBMC + LPS(5 ug/ml) + test article 5 nM, individual replicates
# [11] = PBMC + LPS(5 ug/ml) + test article 50 nM, Mean
# [12] = PBMC + LPS(5 ug/ml) + test article 50 nM, individual replicates
# [13] = PBMC + LPS(5 ug/ml) + test article 500 nM, Mean
# [14] = PBMC + LPS(5 ug/ml) + test article 500 nM, individual replicates
# [15] = PBMC + LPS(5 ug/ml) + compound 0.005 nM
# [16] = PBMC + LPS(5 ug/ml) + compound 0.05 nM
# [17] = PBMC + LPS(5 ug/ml) + compound 0.5 nM
# [18] = PBMC + LPS(5 ug/ml) + compound 5 nM
# [19] = PBMC + LPS(5 ug/ml) + compound 50 nM
# [20] = PBMC + LPS(5 ug/ml) + compound 500 nM
structure (smiles),measurement,setting,value
CC(C)C[C@H](NC(=O)CNC(=O)[C@H](CC(C)C)NC(=O)[C@H](CCC(N)=O)NC(=O)CNC(=O)[C@@H]1C[C@@H](O)CN1)C(=O)N[C@@H](C)C(=O)NCC(=O)N1CCC[C@H]1C(=O)N[C@@H](CCCCN)C(=O)O [YDE-011] (H-[Hyp]GQLGLAGPK-OH),IL-1 beta/IL-1F2 Concentration,[1]; [3],5171.7 pg/mL
same,IL-1 beta/IL-1F2 MFI,[1]; [3],94.5
same,IL-1 beta/IL-1F2 Concentration,[1]; [4],5350.1 pg/mL and 5023.0 pg/mL and 5141.9 pg/mL
same,IL-1 beta/IL-1F2 MFI,[1]; [4],97.5 and 92.0 and 94.0
same,IL-1 beta/IL-1F2 Concentration,[1]; [5],5836.1 pg/mL
same,IL-1 beta/IL-1F2 MFI,[1]; [5],105.7
same,IL-1 beta/IL-1F2 Concentration,[1]; [6],5796.4 pg/mL and 6094.1 pg/mL and 5617.8 pg/mL
same,IL-1 beta/IL-1F2 MFI,[1]; [6],105.0 and 110.0 and 102.0
same,IL-1 beta/IL-1F2 Concentration,[1]; [7],4864.5 pg/mL
same,IL-1 beta/IL-1F2 MFI,[1]; [7],89.3
same,IL-1 beta/IL-1F2 Concentration,[1]; [8],4844.7 pg/mL and 4963.6 pg/mL and 4785.3 pg/mL
same,IL-1 beta/IL-1F2 MFI,[1]; [8],89.0 and 91.0 and 88.0
same,IL-1 beta/IL-1F2 Concentration,[1]; [9],4350.3 pg/mL
same,IL-1 beta/IL-1F2 MFI,[1]; [9],80.7
same,IL-1 beta/IL-1F2 Concentration,[1]; [10],3539.2 pg/mL and 4250.8 pg/mL and 5260.9 pg/mL
same,IL-1 beta/IL-1F2 MFI,[1]; [10],67.0 and 79.0 and 96.0
same,IL-1 beta/IL-1F2 Concentration,[1]; [11],4786.7 pg/mL
same,IL-1 beta/IL-1F2 MFI,[1]; [11],88.0
same,IL-1 beta/IL-1F2 Concentration,[1]; [12],5558.3 pg/mL and 5617.8 pg/mL and 3183.9 pg/mL
same,IL-1 beta/IL-1F2 MFI,[1]; [12],101.0 and 102.0 and 61.0
same,IL-1 beta/IL-1F2 Concentration,[1]; [13],4262.6 pg/mL
same,IL-1 beta/IL-1F2 MFI,[1]; [13],79.2
same,IL-1 beta/IL-1F2 Concentration,[1]; [14],5796.4 pg/mL and 2681.1 pg/mL and 4310.2 pg/mL
same,IL-1 beta/IL-1F2 MFI,[1]; [14],105.0 and 52.5 and 80.0
same,"IL-2 Concentration, individual wells",[2]; [15],2239.1 pg/mL and 2082.5 pg/mL and 2707.7 pg/mL
same,"IL-2 MFI, individual wells",[2]; [15],58.0 and 56.0 and 64.0
same,"IL-2 MFI, Mean",[2]; [15],59.3
same,"IL-2 Concentration, Mean",[2]; [15],2343.1 pg/mL
same,"IL-2 Concentration, individual wells",[2]; [16],2707.7 pg/mL and 2473.6 pg/mL and 2824.6 pg/mL
same,"IL-2 MFI, individual wells",[2]; [16],64.0 and 61.0 and 65.5
same,"IL-2 MFI, Mean",[2]; [16],63.5
same,"IL-2 Concentration, Mean",[2]; [16],2668.6 pg/mL
same,"IL-2 Concentration, individual wells",[2]; [17],2239.1 pg/mL and 1925.7 pg/mL and 2200.0 pg/mL
same,"IL-2 MFI, individual wells",[2]; [17],58.0 and 54.0 and 57.5
same,"IL-2 MFI, Mean",[2]; [17],56.5
same,"IL-2 Concentration, Mean",[2]; [17],2121.6 pg/mL
same,"IL-2 Concentration, individual wells",[2]; [18],1532.6 pg/mL and 1611.3 pg/mL and 2551.7 pg/mL
same,"IL-2 MFI, individual wells",[2]; [18],49.0 and 50.0 and 62.0
same,"IL-2 MFI, Mean",[2]; [18],53.7
same,"IL-2 Concentration, Mean",[2]; [18],1898.5 pg/mL
same,"IL-2 Concentration, individual wells",[2]; [19],2160.8 pg/mL and 659.4 pg/mL and 2082.5 pg/mL
same,"IL-2 MFI, individual wells",[2]; [19],57.0 and 38.0 and 56.0
same,"IL-2 MFI, Mean",[2]; [19],50.3
same,"IL-2 Concentration, Mean",[2]; [19],1634.3 pg/mL
same,"IL-2 Concentration, individual wells",[2]; [20],2941.4 pg/mL and 579.2 pg/mL and 1729.4 pg/mL
same,"IL-2 MFI, individual wells",[2]; [20],67.0 and 37.0 and 51.5
same,"IL-2 MFI, Mean",[2]; [20],51.8
same,"IL-2 Concentration, Mean",[2]; [20],1750.0 pg/mL
same,LPS-induced IL-2 (in words),"[2]; at as low as 5 μM, LPS 5 ug/mL 24 hrs",significantly reduced
